Publication PMC8519569 (Science Advances, 2021)

Biological target: T1, PatA (Mycolicibacterium smegmatis, UniProt A0QWG5)
T1 sequence (A0QWG5 1-304): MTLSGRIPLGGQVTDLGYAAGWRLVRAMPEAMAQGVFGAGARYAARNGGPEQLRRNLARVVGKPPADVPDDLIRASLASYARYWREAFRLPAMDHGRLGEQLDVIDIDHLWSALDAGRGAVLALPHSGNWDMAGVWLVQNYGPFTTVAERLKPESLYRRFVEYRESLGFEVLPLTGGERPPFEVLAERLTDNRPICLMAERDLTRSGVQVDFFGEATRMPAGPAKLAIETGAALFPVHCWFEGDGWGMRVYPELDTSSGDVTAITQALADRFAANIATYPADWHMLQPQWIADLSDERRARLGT
Assay: isothermal titration calorimetry
Format: binding

- Kd: 7.18 µM
SMILES: CCCCCCCCCCCCCCCCSCCNC(=O)CCNC(=O)[C@H](O)C(C)(C)COP(=O)(O)OP(=O)(O)OC[C@H]1O[C@@H](n2cnc3c(N)ncnc32)[C@H](O)[C@@H]1OP(=O)(O)O [S-C16-CoA, S-hexadecyl-CoA]
